Assay results reported in publication PMC10340592, “Extraction Efficiency and Alpha-Glucosidase Inhibitory Activities of Green Tea Catechins by Different Infusion Methods” (Foods, 2023).

Experiments:
rat alpha-glucosidase = experiment: Inhibitory activity on rat alpha-glucosidase (rat intestinal acetone powder enzyme, maltose substrate, glucose read-out); format: biochemical; settings: mean ± SD
Protocol: Inhibitory activity on rat alpha-glucosidase was measured as described previously with some modification. Rat alpha-glucosidase protein solution was extracted from rat intestinal acetone powders using the ultrasonication method. Briefly, 100 mg of intestinal acetone powders from rats were added to 1.0 mL of a 0.1 M maleic acid/disodium maleate buffer solution at pH 6.0. Then, one cycle of 30 s of ultrasonication and 30 s of break were repeated 6 times in ice-cold water, and the residue was separated by centrifugation (3000 rpm, 30 min, 4 °C). The supernatant was collected as the enzyme solution for experiments. Then, 50 µL of 4% maltose (w/v) and 25 µL of sample solution (GTEs or catechins) were added to a microtube and preincubated at 37 °C for 3 min. After that, 25 µL of the above enzyme solution was added and incubated at 37 °C for 30 min. Consequently, 400 µL of ultrapure water was added and inactivated at 100 °C for 4 min. After 100 µL of the inactivated reaction solution and 150 µL of color reagent (LabAssay™ Glucose kit) were mixed, the glucose contents (mg/dL) were measured at 505 nm through the spectrometer (Infinite 200 Pro MPlex, Tecan Ltd., Männedorf, Switzerland) according to the manufacturer’s instructions with the standard glucose curve. […] The inhibitory activity of each sample was calculated as follows:Inhibitory activity (%) = 100 − {(Cs − Csb)/(Cc − Cb)} × 100 • Cc: Glucose content of the negative control; • Cb: Glucose content of the blank; • Cs: Glucose content of the sample; • Csb: Glucose content of the sample blank.

human alpha-glucosidase = target: T1, human alpha-glucosidase (Homo sapiens, UniProt P14410); experiment: Inhibitory activity on human alpha-glucosidase in differentiated Caco-2 cells (maltose substrate); format: cell-based; settings: mean ± SD
T1 construct: cultured for 14 days to differentiate into small intestinal epithelial-like cells; host or cells: differentiated Caco-2 cells
Protocol: Inhibitory activity on human alpha-glucosidase was measured using differentiated Caco-2 cells as described previously with some modification. Briefly, Caco-2 cells were purchased from Riken Bioresource Research Center (Tsukuba, Japan) and cultured in Minimal Essential Medium (MEM) supplemented with 20% fetal bovine serum, 1% penicillin-streptomycin-glutamine, and 1% non-essential amino acids at 37 °C in an atmosphere of 5% CO2. After passaging, cells (2.0 × 10^4 cells/well) were seeded in 48-well plates and cultured for 14 days to differentiate into small intestinal epithelial-like cells. After 14 days, cells were washed twice with PBS, and 150 µL of sample solution at each concentration as well as 150 µL of 3 mM maltose were added. Each sample and maltose solution were dissolved in PBS. The cells were further incubated for 2 h at 37 °C in an atmosphere of 5% CO2. Then, 100 µL of cell culture supernatant was mixed with 150 µL of color reagent and measured at 505 nm through the spectrometer (Infinite 200 Pro MPlex, Tecan Ltd., Männedorf, Switzerland). The inhibitory activity of the sample was calculated in the same way as in the rat alpha-glucosidase experiment.

T1 sequence (P14410 whole entry): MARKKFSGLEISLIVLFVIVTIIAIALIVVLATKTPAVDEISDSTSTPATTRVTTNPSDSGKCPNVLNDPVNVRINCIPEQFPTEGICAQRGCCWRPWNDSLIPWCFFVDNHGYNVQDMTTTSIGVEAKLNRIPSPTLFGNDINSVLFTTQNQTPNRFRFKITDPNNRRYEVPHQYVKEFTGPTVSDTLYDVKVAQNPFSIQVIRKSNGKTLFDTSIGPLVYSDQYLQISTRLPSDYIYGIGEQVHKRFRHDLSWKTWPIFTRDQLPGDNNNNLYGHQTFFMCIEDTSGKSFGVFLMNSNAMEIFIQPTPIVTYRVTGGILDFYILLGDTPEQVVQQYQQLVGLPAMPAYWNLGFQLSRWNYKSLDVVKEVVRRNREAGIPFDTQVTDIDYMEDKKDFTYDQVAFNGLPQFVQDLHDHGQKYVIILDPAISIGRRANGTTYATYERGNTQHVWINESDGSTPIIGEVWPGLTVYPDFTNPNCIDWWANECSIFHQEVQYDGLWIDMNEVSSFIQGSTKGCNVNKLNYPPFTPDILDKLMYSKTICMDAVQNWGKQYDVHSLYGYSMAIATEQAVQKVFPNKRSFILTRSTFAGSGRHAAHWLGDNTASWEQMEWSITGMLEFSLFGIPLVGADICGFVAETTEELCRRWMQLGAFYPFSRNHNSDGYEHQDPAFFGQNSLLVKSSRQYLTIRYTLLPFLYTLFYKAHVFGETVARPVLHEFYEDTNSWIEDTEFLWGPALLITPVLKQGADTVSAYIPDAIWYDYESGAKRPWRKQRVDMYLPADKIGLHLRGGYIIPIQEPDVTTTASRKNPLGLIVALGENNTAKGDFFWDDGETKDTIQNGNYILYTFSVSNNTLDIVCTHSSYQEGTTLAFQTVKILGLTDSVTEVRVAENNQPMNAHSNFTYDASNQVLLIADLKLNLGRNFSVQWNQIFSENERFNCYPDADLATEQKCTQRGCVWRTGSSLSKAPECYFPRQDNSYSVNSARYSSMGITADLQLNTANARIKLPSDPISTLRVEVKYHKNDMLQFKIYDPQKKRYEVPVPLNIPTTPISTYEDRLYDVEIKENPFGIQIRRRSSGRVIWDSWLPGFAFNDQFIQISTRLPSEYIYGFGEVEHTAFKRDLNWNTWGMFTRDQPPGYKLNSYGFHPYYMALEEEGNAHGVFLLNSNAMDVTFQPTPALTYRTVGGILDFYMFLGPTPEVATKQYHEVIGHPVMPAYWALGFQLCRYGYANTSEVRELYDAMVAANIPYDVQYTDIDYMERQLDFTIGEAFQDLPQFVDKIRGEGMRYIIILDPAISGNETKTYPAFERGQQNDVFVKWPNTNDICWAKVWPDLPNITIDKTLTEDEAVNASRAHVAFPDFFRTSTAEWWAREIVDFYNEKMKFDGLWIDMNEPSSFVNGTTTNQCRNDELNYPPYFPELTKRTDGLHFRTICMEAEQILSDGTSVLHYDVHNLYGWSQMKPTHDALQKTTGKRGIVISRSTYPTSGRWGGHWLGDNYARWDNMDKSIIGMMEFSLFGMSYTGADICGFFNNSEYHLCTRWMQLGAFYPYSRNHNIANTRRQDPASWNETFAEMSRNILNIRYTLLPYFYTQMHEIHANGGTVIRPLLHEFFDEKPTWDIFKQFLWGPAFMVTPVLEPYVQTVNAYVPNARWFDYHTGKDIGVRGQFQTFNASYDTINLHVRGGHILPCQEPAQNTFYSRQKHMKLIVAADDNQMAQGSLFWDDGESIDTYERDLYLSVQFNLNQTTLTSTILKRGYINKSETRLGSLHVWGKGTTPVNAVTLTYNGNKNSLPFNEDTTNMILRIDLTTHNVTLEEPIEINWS

| SMILES | IC50 (rat alpha-glucosidase) | IC50 (human alpha-glucosidase) |
| --- | --- | --- |
| Oc1cc(O)c2c(c1)O[C@H](c1ccc(O)c(O)c1)[C@@H](O)C2 [(+)C, (+)-catechin] | 1200 ± 79.6 µM | – |
| O=C(O[C@@H]1Cc2c(O)cc(O)cc2O[C@H]1c1ccc(O)c(O)c1)c1cc(O)c(O)c(O)c1 [Cg, (−)-catechin-3-gallate] | 112 ± 7.8 µM | – |
| Oc1cc(O)c2c(c1)O[C@H](c1ccc(O)c(O)c1)[C@H](O)C2 [EC, (−)-epicatechin] | 675 ± 15.7 µM | 134 ± 2.2 µM |
| O=C(O[C@@H]1Cc2c(O)cc(O)cc2O[C@@H]1c1ccc(O)c(O)c1)c1cc(O)c(O)c(O)c1 [ECg, (−)-epicatechin-3-gallate] | 96.9 ± 4.5 µM | 78.4 ± 15.2 µM |
| Oc1cc(O)c2c(c1)O[C@H](c1cc(O)c(O)c(O)c1)[C@H](O)C2 [EGC, (−)-epigallocatechin] | 713 ± 35.3 µM | 214 ± 3.8 µM |
| O=C(O[C@@H]1Cc2c(O)cc(O)cc2O[C@@H]1c1cc(O)c(O)c(O)c1)c1cc(O)c(O)c(O)c1 [EGCg, (−)-epigallocatechin-3-gallate] | 46 ± 3.73 µM | 90.7 ± 15.8 µM |
| O=C(O)c1cc(O)c(O)c(O)c1 [GA, gallic acid, reference compound] | 1030 ± 64.5 µM | – |
| Oc1cc(O)c2c(c1)O[C@@H](c1cc(O)c(O)c(O)c1)[C@H](O)C2 [GC, (−)-gallocatechin] | 798 ± 26.8 µM | – |
| O=C(O[C@@H]1Cc2c(O)cc(O)cc2O[C@H]1c1cc(O)c(O)c(O)c1)c1cc(O)c(O)c(O)c1 [GCg, (−)-gallocatechin-3-gallate] | 161 ± 2.4 µM | – |
| C[C@H]1O[C@H](O[C@H]2[C@H](O)[C@@H](O)[C@@H](O[C@H]3[C@H](O)[C@@H](O)C(O)O[C@@H]3CO)O[C@@H]2CO)[C@H](O)[C@@H](O)[C@@H]1N[C@H]1C=C(CO)[C@@H](O)[C@H](O)[C@H]1O (some centres unmarked) [acarbose, reference compound] | 2.17 ± 0.23 µM | – |
